Measured values taken from patent publication US12077503B2, “Substituted cyclic amides and their use as herbicides” (FMC CORPORATION, priority 2015, dated 2024).

Columns and labels:
Assay type in all cases: in vivo
[1] = test system: barnyardgrass (Echinochloa crus-galli); test: Test G Pre-Emergence Protocol; conditions: Echinochloa crus-galli, pre-emergence, 312 h, evaluated after 13 days; for pest or weed control at 15.625 g/ha: 15.625 g ai/ha; for pest or weed control at 15.625 g/ha / pest or weed control at 250 g/ha: read-out: Barnyardgrass damage rating (100=total damage to plant; 0=no damage to plant); for pest or weed control at 62.5 g/ha: 62.5 g ai/ha, 100=total damage to plant, 0=no damage to plant, read-out: Barnyardgrass damage rating; for pest or weed control at 250 g/ha: 250 g ai/ha
Outline: (§1)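 Glasshouse pre-emergence test: soil-sown seeds, sprayed after 1 d at 15.625, 62.5 or 250 g/ha. Conditions 24/16° C day/night, 14 h light, 65% humidity, watering twice daily. Rating 13 d post-spray (100 = total damage).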

corn (Zea mays) [2] = test: Test G Pre-Emergence Protocol; conditions: Zea mays, pre-emergence, 312 h, evaluated after 13 days; for plant injury at 15.625 g/ha: 15.625 g ai/ha; for plant injury at 15.625 g/ha / plant injury at 250 g/ha: read-out: Corn damage rating (100=total damage to plant; 0=no damage to plant); for plant injury at 62.5 g/ha: 62.5 g ai/ha, 100=total damage to plant, 0=no damage to plant, read-out: Corn damage rating; for plant injury at 250 g/ha: 250 g ai/ha
Outline: as §1

[3] = test system: giant foxtail (Setaria faberi); test: Test G Pre-Emergence Protocol; conditions: Setaria faberi, pre-emergence, 312 h, evaluated after 13 days; for pest or weed control at 15.625 g/ha: 15.625 g ai/ha; for pest or weed control at 15.625 g/ha / pest or weed control at 250 g/ha: read-out: Foxtail, Giant damage rating (100=total damage to plant; 0=no damage to plant); for pest or weed control at 62.5 g/ha: 62.5 g ai/ha, 100=total damage to plant, 0=no damage to plant, read-out: Foxtail, Giant damage rating; for pest or weed control at 250 g/ha: 250 g ai/ha
Outline: as §1

[4] = test system: ivy-leaved morning glory (Ipomoea hederacea); test: Test G Pre-Emergence Protocol; conditions: Ipomoea, pre-emergence, 312 h, evaluated after 13 days; for pest or weed control at 15.625 g/ha: 15.625 g ai/ha; for pest or weed control at 15.625 g/ha / pest or weed control at 250 g/ha: read-out: Morningglory, Ivy-leaved damage rating (100=total damage to plant; 0=no damage to plant); for pest or weed control at 62.5 g/ha: 62.5 g ai/ha, 100=total damage to plant, 0=no damage to plant, read-out: Morningglory, Ivy-leaved damage rating; for pest or weed control at 250 g/ha: 250 g ai/ha
Outline: as §1

[5] = test system: redroot pigweed (Amaranthus retroflexus); test: Test G Pre-Emergence Protocol; conditions: Amaranthus retroflexus, pre-emergence, 312 h, evaluated after 13 days; for pest or weed control at 15.625 g/ha: 15.625 g ai/ha; for pest or weed control at 15.625 g/ha / pest or weed control at 250 g/ha: read-out: Pigweed, Redroot damage rating (100=total damage to plant; 0=no damage to plant); for pest or weed control at 62.5 g/ha: 62.5 g ai/ha, 100=total damage to plant, 0=no damage to plant, read-out: Pigweed, Redroot damage rating; for pest or weed control at 250 g/ha: 250 g ai/ha
Outline: as §1

[6] = test system: velvetleaf (Abutilon theophrasti); test: Test G Pre-Emergence Protocol; conditions: Abutilon theophrasti, pre-emergence, 312 h, evaluated after 13 days; for pest or weed control at 15.625 g/ha: 15.625 g ai/ha; for pest or weed control at 15.625 g/ha / pest or weed control at 250 g/ha: read-out: Velvetleaf damage rating (100=total damage to plant; 0=no damage to plant); for pest or weed control at 62.5 g/ha: 62.5 g ai/ha, 100=total damage to plant, 0=no damage to plant, read-out: Velvetleaf damage rating; for pest or weed control at 250 g/ha: 250 g ai/ha
Outline: as §1

[7] = test system: barnyardgrass (Echinochloa crus-galli); test: Test G Post-Emergence Protocol; conditions: Echinochloa crus-galli, post-emergence, 312 h, read-out: Barnyardgrass damage rating; for pest or weed control at 15.625 g/ha: 15.625 g ai/ha, evaluated after 13 days (100=total damage to plant; 0=no damage to plant); for pest or weed control at 62.5 g/ha: 62.5 g ai/ha; for pest or weed control at 62.5 g/ha / pest or weed control at 250 g/ha: evaluated after 13 days, 100=total damage to plant, 0=no damage to plant; for pest or weed control at 250 g/ha: 250 g ai/ha
Outline: (§2)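 A glasshouse post-emergence test: 8-day-old plants sprayed at 15.625, 62.5 or 250 g/ha, then grown at 24/16 °C day/night with 14 h light and 65% humidity. Damage rated 13 days later, 0–100.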

corn (Zea mays) [8] = test: Test G Post-Emergence Protocol; conditions: Zea mays, post-emergence, 312 h, read-out: Corn damage rating; for plant injury at 15.625 g/ha: 15.625 g ai/ha, evaluated after 13 days (100=total damage to plant; 0=no damage to plant); for plant injury at 62.5 g/ha: 62.5 g ai/ha; for plant injury at 62.5 g/ha / plant injury at 250 g/ha: evaluated after 13 days, 100=total damage to plant, 0=no damage to plant; for plant injury at 250 g/ha: 250 g ai/ha
Outline: as §2

[9] = test system: giant foxtail (Setaria faberi); test: Test G Post-Emergence Protocol; conditions: Setaria faberi, post-emergence, 312 h, read-out: Foxtail, Giant damage rating; for pest or weed control at 15.625 g/ha: 15.625 g ai/ha, evaluated after 13 days (100=total damage to plant; 0=no damage to plant); for pest or weed control at 62.5 g/ha: 62.5 g ai/ha; for pest or weed control at 62.5 g/ha / pest or weed control at 250 g/ha: evaluated after 13 days, 100=total damage to plant, 0=no damage to plant; for pest or weed control at 250 g/ha: 250 g ai/ha
Outline: as §2

[10] = test system: ivy-leaved morning glory (Ipomoea hederacea); test: Test G Post-Emergence Protocol; conditions: Ipomoea, post-emergence, 312 h, read-out: Morningglory, Ivy-leaved damage rating; for pest or weed control at 15.625 g/ha: 15.625 g ai/ha, evaluated after 13 days (100=total damage to plant; 0=no damage to plant); for pest or weed control at 62.5 g/ha: 62.5 g ai/ha; for pest or weed control at 62.5 g/ha / pest or weed control at 250 g/ha: evaluated after 13 days, 100=total damage to plant, 0=no damage to plant; for pest or weed control at 250 g/ha: 250 g ai/ha
Outline: as §2

[11] = test system: redroot pigweed (Amaranthus retroflexus); test: Test G Post-Emergence Protocol; conditions: Amaranthus retroflexus, post-emergence, 312 h, read-out: Pigweed, Redroot damage rating; for pest or weed control at 15.625 g/ha: 15.625 g ai/ha, evaluated after 13 days (100=total damage to plant; 0=no damage to plant); for pest or weed control at 62.5 g/ha: 62.5 g ai/ha; for pest or weed control at 62.5 g/ha / pest or weed control at 250 g/ha: evaluated after 13 days, 100=total damage to plant, 0=no damage to plant; for pest or weed control at 250 g/ha: 250 g ai/ha
Outline: as §2

[12] = test system: velvetleaf (Abutilon theophrasti); test: Test G Post-Emergence Protocol; conditions: Abutilon theophrasti, post-emergence, 312 h, read-out: Velvetleaf damage rating; for pest or weed control at 15.625 g/ha: 15.625 g ai/ha, evaluated after 13 days (100=total damage to plant; 0=no damage to plant); for pest or weed control at 62.5 g/ha: 62.5 g ai/ha; for pest or weed control at 62.5 g/ha / pest or weed control at 250 g/ha: evaluated after 13 days, 100=total damage to plant, 0=no damage to plant; for pest or weed control at 250 g/ha: 250 g ai/ha
Outline: as §2

CN1C[C@H](c2ccc(C(F)(F)F)cc2)[C@@H](C(=O)Nc2cnccc2F)C1=O (racemic) [Compound 1744]
10%: pest or weed control at 62.5 g/ha [3] | pest or weed control at 62.5 g/ha [5] | pest or weed control at 250 g/ha [5] | pest or weed control at 62.5 g/ha [7] | plant injury at 250 g/ha (corn (Zea mays) [8]) | pest or weed control at 62.5 g/ha [11] | pest or weed control at 250 g/ha [12]
70%: pest or weed control at 250 g/ha [7]
40%: pest or weed control at 250 g/ha [10]
20%: pest or weed control at 62.5 g/ha [9]
30%: pest or weed control at 250 g/ha [11]
60%: pest or weed control at 250 g/ha [9]
0%: pest or weed control at 15.625 g/ha [1] | pest or weed control at 62.5 g/ha [1] | pest or weed control at 250 g/ha [1] | plant injury at 15.625 g/ha (corn (Zea mays) [2]) | plant injury at 62.5 g/ha (corn (Zea mays) [2]) | plant injury at 250 g/ha (corn (Zea mays) [2]) | pest or weed control at 15.625 g/ha [3] | pest or weed control at 15.625 g/ha [4] | pest or weed control at 62.5 g/ha [4] | pest or weed control at 15.625 g/ha [5] | pest or weed control at 15.625 g/ha [6] | pest or weed control at 62.5 g/ha [6] | pest or weed control at 250 g/ha [6] | pest or weed control at 15.625 g/ha [7] | plant injury at 15.625 g/ha (corn (Zea mays) [8]) | plant injury at 62.5 g/ha (corn (Zea mays) [8]) | pest or weed control at 15.625 g/ha [9] | pest or weed control at 15.625 g/ha [10] | pest or weed control at 62.5 g/ha [10] | pest or weed control at 15.625 g/ha [11] | pest or weed control at 15.625 g/ha [12] | pest or weed control at 62.5 g/ha [12]
50%: pest or weed control at 250 g/ha [3]

CCOc1cc([C@@H]2CN(C)C(=O)[C@H]2C(=O)Nc2cccc(F)c2F)cc(C(F)(F)F)n1 (racemic) [Compound 1753]
50%: pest or weed control at 62.5 g/ha [10]
80%: pest or weed control at 250 g/ha [1] | pest or weed control at 62.5 g/ha [3] | pest or weed control at 250 g/ha [4] | plant injury at 250 g/ha (corn (Zea mays) [8])
60%: plant injury at 250 g/ha (corn (Zea mays) [2]) | pest or weed control at 250 g/ha [5] | plant injury at 15.625 g/ha (corn (Zea mays) [8]) | plant injury at 62.5 g/ha (corn (Zea mays) [8]) | pest or weed control at 15.625 g/ha [9] | pest or weed control at 62.5 g/ha [9] | pest or weed control at 250 g/ha [10]
20%: pest or weed control at 15.625 g/ha [10] | pest or weed control at 62.5 g/ha [11] | pest or weed control at 62.5 g/ha [12]
30%: pest or weed control at 15.625 g/ha [1] | pest or weed control at 250 g/ha [11] | pest or weed control at 250 g/ha [12]
70%: pest or weed control at 62.5 g/ha [1] | pest or weed control at 15.625 g/ha [3] | pest or weed control at 62.5 g/ha [7] | pest or weed control at 250 g/ha [7] | pest or weed control at 250 g/ha [9]
40%: pest or weed control at 15.625 g/ha [7]
90%: pest or weed control at 250 g/ha [3]
0%: plant injury at 15.625 g/ha (corn (Zea mays) [2]) | plant injury at 62.5 g/ha (corn (Zea mays) [2]) | pest or weed control at 15.625 g/ha [4] | pest or weed control at 62.5 g/ha [4] | pest or weed control at 15.625 g/ha [5] | pest or weed control at 62.5 g/ha [5] | pest or weed control at 15.625 g/ha [6] | pest or weed control at 62.5 g/ha [6] | pest or weed control at 250 g/ha [6] | pest or weed control at 15.625 g/ha [11]
10%: pest or weed control at 15.625 g/ha [12]

CON1C[C@@H](c2cccc(C(F)(F)F)c2)[C@H](C(=O)Nc2cccc(F)c2F)C1=O (racemic) [Compound 1763]
20%: pest or weed control at 15.625 g/ha [1] | pest or weed control at 250 g/ha [4] | plant injury at 15.625 g/ha (corn (Zea mays) [8]) | plant injury at 62.5 g/ha (corn (Zea mays) [8]) | pest or weed control at 250 g/ha [11] | pest or weed control at 250 g/ha [12]
70%: pest or weed control at 250 g/ha [7] | plant injury at 250 g/ha (corn (Zea mays) [8]) | pest or weed control at 250 g/ha [9]
0%: plant injury at 15.625 g/ha (corn (Zea mays) [2]) | pest or weed control at 15.625 g/ha [4] | pest or weed control at 62.5 g/ha [4] | pest or weed control at 15.625 g/ha [5] | pest or weed control at 62.5 g/ha [5] | pest or weed control at 250 g/ha [5] | pest or weed control at 15.625 g/ha [6] | pest or weed control at 62.5 g/ha [6] | pest or weed control at 250 g/ha [6] | pest or weed control at 15.625 g/ha [11] | pest or weed control at 62.5 g/ha [11] | pest or weed control at 15.625 g/ha [12]
30%: pest or weed control at 15.625 g/ha [10]
60%: pest or weed control at 62.5 g/ha [1] | pest or weed control at 62.5 g/ha [7] | pest or weed control at 15.625 g/ha [9] | pest or weed control at 62.5 g/ha [9]
40%: pest or weed control at 15.625 g/ha [7] | pest or weed control at 62.5 g/ha [10]
50%: plant injury at 62.5 g/ha (corn (Zea mays) [2]) | pest or weed control at 250 g/ha [10]
10%: pest or weed control at 62.5 g/ha [12]
90%: pest or weed control at 62.5 g/ha [3] | pest or weed control at 250 g/ha [3]
80%: pest or weed control at 250 g/ha [1] | plant injury at 250 g/ha (corn (Zea mays) [2]) | pest or weed control at 15.625 g/ha [3]
